# Results from ChEMBL document CHEMBL5608174, “Synthesis and biological evaluation of 4-phenyl-5-quinolinyl substituted isoxazole analogues as potent cytotoxic and tubulin polymerization inhibitors against ESCC” (Eur J Med Chem, 2024).
# Activity calls are given as the source filed them. No cut-off for these calls is given here.
# Experiments:
# [1] = Toxicity in female BALB/c-nu nude mouse xenografted with human KYSE-30 cells assessed as change in heart pathology at 6 to 12 mg/kg, ip administered for 15 days by H and E staining based analysis; format: organism-based; conditions: in vivo, 360 h, dose 6-12 mg/kg, time 15 day
# Sus scrofa = organism: Sus scrofa; assay: Inhibition of porcine brain tubulin polymerization measured every 30 secs for 120 times in the presence of GTP by fluorescence based assay; conditions: time 60.0 min
# [2] = Toxicity in female BALB/c-nu nude mouse xenografted with human KYSE-30 cells assessed as effect on serum AST level at 6 to 12 mg/kg, ip administered for 15 days by biochemical analysis; format: organism-based; conditions: in vivo, 360 h, dose 6-12 mg/kg, time 15 day
# KYSE-30 [3] = assay: Induction of apoptosis in human KYSE-30 cells assessed as necrotic cells at 5 nmol/L incubated for 48 hrs by Annexin V-FITC/PI staining based flow cytometry analysis (reference value: 1.59 %); format: functional
# KYSE-30 [4] = assay: Induction of apoptosis in human KYSE-30 cells assessed as early apoptotic cells at 10 nmol/L incubated for 48 hrs by Annexin V-FITC/PI staining based flow cytometry analysis (reference value: 4.38 %); format: functional
# KYSE-30 [5] = assay: Induction of apoptosis in human KYSE-30 cells assessed as early apoptotic cells at 20 nmol/L incubated for 48 hrs by Annexin V-FITC/PI staining based flow cytometry analysis (reference value: 4.38 %); format: functional
compound,measurement,setting,value
COc1ccc(-c2cnoc2-c2cc(C)nc3ccccc23)cc1,Activity,[1],Non-Toxic
same,inhibition,Sus scrofa,Active
same,Activity,[2],Non-Toxic
same,Activity,KYSE-30 [3],2.61%
same,Activity,KYSE-30 [4],47.75%
same,Activity,KYSE-30 [5],47.76%
